# Laboratory results: patent US11713338B2, “Cyclic peptides multimers targeting α-4-β-7 integrin” (priority 2016, dated 2023)
# Columns and labels:
# [1] = target: T1, recombinant integrin α4β7 (Homo sapiens, UniProt P13612+P26010, DEL724-798); test: Integrin α4β7—MAdCAM-1 ELISA competition assay; format: binding; settings: for ELISA Assay Ratio b1/b7: ratio of a4b1 to a4b7 ELISA IC50; for IC50: read-out: ELISA a4b7 Assay IC50
# T1 construct: purchased R&D Systems 5397-A3-050
# T1 sequence (P13612 34-970 limits assumed): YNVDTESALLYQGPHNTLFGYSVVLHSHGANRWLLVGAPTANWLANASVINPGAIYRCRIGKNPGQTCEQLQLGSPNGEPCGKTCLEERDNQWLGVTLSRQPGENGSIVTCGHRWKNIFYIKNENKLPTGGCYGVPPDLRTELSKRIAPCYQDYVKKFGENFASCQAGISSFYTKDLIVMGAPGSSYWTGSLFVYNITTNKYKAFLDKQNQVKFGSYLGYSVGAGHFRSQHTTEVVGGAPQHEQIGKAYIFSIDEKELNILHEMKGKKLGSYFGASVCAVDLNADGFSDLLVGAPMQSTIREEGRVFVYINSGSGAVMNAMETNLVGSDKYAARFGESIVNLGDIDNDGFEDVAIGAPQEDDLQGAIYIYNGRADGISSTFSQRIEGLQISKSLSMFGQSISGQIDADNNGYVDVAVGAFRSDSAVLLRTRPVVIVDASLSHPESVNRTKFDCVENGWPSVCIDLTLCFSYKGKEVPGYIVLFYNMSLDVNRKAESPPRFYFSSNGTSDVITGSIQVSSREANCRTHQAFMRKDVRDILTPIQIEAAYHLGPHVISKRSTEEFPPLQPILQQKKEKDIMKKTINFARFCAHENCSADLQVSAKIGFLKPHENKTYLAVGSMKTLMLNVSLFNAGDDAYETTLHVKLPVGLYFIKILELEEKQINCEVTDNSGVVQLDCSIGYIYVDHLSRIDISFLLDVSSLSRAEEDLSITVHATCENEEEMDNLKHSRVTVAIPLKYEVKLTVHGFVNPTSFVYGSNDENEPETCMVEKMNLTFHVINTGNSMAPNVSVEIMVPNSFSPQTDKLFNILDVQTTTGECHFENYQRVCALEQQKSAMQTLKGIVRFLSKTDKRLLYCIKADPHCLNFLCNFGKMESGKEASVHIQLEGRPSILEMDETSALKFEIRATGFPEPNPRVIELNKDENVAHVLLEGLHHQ
# T1 sequence (P26010 20-723 limits assumed): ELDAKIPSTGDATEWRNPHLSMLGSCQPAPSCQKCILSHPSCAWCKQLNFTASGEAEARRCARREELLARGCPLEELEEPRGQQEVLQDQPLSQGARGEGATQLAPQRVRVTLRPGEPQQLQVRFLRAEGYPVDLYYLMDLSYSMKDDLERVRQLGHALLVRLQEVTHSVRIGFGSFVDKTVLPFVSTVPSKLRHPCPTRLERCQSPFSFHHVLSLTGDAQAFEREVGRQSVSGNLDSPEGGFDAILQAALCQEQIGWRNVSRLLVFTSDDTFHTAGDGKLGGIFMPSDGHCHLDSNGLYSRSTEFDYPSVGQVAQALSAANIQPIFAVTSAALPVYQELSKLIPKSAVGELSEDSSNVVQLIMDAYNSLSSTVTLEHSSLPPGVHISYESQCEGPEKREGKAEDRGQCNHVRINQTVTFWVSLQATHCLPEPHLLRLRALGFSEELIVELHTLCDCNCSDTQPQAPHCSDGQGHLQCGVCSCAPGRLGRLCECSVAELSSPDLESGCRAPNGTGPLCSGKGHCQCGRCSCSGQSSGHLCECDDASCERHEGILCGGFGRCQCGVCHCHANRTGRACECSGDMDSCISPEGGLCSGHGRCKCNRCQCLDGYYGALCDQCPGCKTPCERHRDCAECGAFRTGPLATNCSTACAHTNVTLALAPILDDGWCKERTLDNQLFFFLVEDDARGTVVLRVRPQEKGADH
# Procedure: Integrin α4β7—MAdCAM-1 ELISA Competition Assay
# The plate was incubated at 40C overnight. […] The plate was then incubated for 1 hour at room temperature. The plate was washed three times with wash buffer (50 mM Tris, 100 mM NaCl, 1 mM MnCl2, 0.05% Tween). To each well, 50 μl of compound diluted in assay buffer was added by transfer from a compound serial dilution plate. […] The plate was incubated at room temperature with shaking (300 rpm) for 2 hours to reach binding equilibrium. […] The plate was incubated at room temperature for 1 hour under agitation.
# [2] = target: T2, recombinant integrin α4β1 (Homo sapiens, UniProt P05556+P13612); test: Integrin α4β1—VCAM-1 competition ELISA; format: binding; settings: for IC50: read-out: ELISA a4b1 Assay IC50
# T2 construct: purchased R&D Systems 5397-A3-050
# Procedure: Integrin α4β1—VCAM-1 Competition ELISA
# The plate was incubated at 4° C. overnight. […] The plate was then incubated for 1 hour at room temperature. The plate was washed three times with wash buffer (50 mM Tris, 100 mM NaCl, 1 mM MnCl2, 0.05% Tween). To each well, 50 μl of compound diluted in assay buffer was added by transfer from a compound serial dilution plate. […] The plate was incubated at room temperature with shaking (300 rpm) for 2 hours to reach binding equilibrium. Then the plate was washed three times in wash buffer and 100 μl anti-human IgG Fc specific-HRP (Abcam, Ab97225) diluted at 1:2000 in assay buffer was added to each well. The plate was incubated at room temperature for 1 hour under agitation.
# T2 sequence (P05556 21-728 limits assumed, one chain of several): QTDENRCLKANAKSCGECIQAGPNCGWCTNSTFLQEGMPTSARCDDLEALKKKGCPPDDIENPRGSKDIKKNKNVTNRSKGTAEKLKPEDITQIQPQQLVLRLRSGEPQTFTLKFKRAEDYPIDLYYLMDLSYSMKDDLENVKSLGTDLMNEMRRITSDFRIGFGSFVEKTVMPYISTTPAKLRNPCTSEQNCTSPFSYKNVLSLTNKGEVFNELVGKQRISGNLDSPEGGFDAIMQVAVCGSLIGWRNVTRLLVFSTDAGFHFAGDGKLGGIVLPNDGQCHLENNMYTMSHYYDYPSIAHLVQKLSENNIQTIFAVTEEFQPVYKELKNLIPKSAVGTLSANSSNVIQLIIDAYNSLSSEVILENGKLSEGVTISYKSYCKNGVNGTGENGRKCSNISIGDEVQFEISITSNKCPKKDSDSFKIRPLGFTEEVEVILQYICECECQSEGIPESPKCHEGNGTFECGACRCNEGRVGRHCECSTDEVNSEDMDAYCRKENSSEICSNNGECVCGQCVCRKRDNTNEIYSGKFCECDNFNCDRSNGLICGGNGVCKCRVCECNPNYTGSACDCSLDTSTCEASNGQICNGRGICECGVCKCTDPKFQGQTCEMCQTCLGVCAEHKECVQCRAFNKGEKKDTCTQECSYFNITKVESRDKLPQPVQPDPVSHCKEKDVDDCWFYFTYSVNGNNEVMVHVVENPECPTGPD
compound,measurement,setting,value
CC(C)C[C@@H]1NC(=O)[C@H](Cc2c[nH]cn2)NC(=O)[C@@H]2CCCN2[C@H](C(=O)NC(C)(C)C)[C@@H](CSc2ccccc2)NC(=O)[C@H](C(C)C)NC(=O)[C@H](CC(=O)O)NC1=O [Compound 2],ELISA Assay Ratio b1/b7,[1],1.697
same,IC50,[2],185 nM
CC(C)C[C@@H]1NC(=O)[C@H](CCc2ccccc2)NC(=O)[C@@H]2CCCN2[C@H](C(=O)NC(C)(C)C)[C@H](C)NC(=O)[C@H]([C@@H](C)O)NC(=O)[C@H](CC(=O)O)NC1=O [Compound 6],ELISA Assay Ratio b1/b7,[1],1.9
same,IC50,[1],103 nM
same,IC50,[2],200 nM
CC(C)C[C@@H]1NC(=O)[C@H](CC2CCCCC2)NC(=O)[C@@H]2CCCN2[C@H](C(=O)NC(C)(C)C)[C@H](C)NC(=O)[C@H]([C@@H](C)O)NC(=O)[C@H](CC(=O)O)NC1=O [Compound 7],ELISA Assay Ratio b1/b7,[1],1.6
same,IC50,[1],117 nM
same,IC50,[2],190 nM
CC(C)C[C@@H]1NC(=O)[C@H](Cc2cccc3ccccc23)NC(=O)[C@@H]2CCCN2[C@H](C(=O)NC(C)(C)C)[C@H](C)NC(=O)[C@H]([C@@H](C)O)NC(=O)[C@H](CC(=O)O)NC1=O [Compound 9],ELISA Assay Ratio b1/b7,[1],1.7
same,IC50,[1],61 nM
same,IC50,[2],106 nM
CC(C)C[C@@H]1NC(=O)[C@H](Cc2ccc3ccccc3c2)NC(=O)[C@@H]2CCCN2[C@H](C(=O)NC(C)(C)C)[C@H](C)NC(=O)[C@H]([C@@H](C)O)NC(=O)[C@H](CC(=O)O)NC1=O [Compound 10],ELISA Assay Ratio b1/b7,[1],1.3
same,IC50,[1],52 nM
same,IC50,[2],70 nM
CO[C@H](C)[C@@H]1NC(=O)[C@H](CC(=O)O)NC(=O)[C@H](CC(C)C)NC(=O)[C@H](Cc2ccccc2)NC(=O)[C@@H]2CCCN2[C@H](C(=O)NC(C)(C)C)[C@H](C)NC1=O [Compound 40],ELISA Assay Ratio b1/b7,[1],1.9
same,IC50,[1],63 nM
same,IC50,[2],119 nM
CCO[C@H](C)[C@@H]1NC(=O)[C@H](CC(=O)O)NC(=O)[C@H](CC(C)C)NC(=O)[C@H](Cc2ccccc2)NC(=O)[C@@H]2CCCN2[C@H](C(=O)NC(C)(C)C)[C@H](C)NC1=O [Compound 41],IC50,[2],106 nM
CC(C)C[C@@H]1NC(=O)[C@H](Cc2cccnc2)NC(=O)[C@@H]2C[C@@H](O)CN2[C@H](C(=O)NC(C)(C)C)[C@H](C)NC(=O)[C@H]([C@@H](C)O)NC(=O)[C@H](CC(=O)O)NC1=O [Compound 44],IC50,[2],188 nM
CC(C)C[C@@H]1NC(=O)[C@H](Cc2ccccc2)NC(=O)[C@@H]2C[C@@H](F)CN2[C@H](C(=O)NC(C)(C)C)[C@H](C)NC(=O)[C@H]([C@@H](C)O)NC(=O)[C@H](CC(=O)O)NC1=O [Compound 45],ELISA Assay Ratio b1/b7,[1],3.2
same,IC50,[1],74 nM
same,IC50,[2],238 nM
CC(C)C[C@@H]1NC(=O)[C@H](Cc2ccc(-c3ccccc3)cc2)NC(=O)[C@@H]2C[C@@H](F)CN2[C@H](C(=O)NC(C)(C)C)[C@H](C)NC(=O)[C@H]([C@@H](C)O)NC(=O)[C@H](CC(=O)O)NC1=O [Compound 46],ELISA Assay Ratio b1/b7,[1],2.4
same,IC50,[1],106 nM
same,IC50,[2],258 nM
CC(C)C[C@@H]1NC(=O)[C@H]2CCCCN2C(=O)[C@@H]2CCCN2[C@H](C(=O)NC(C)(C)C)[C@H](C)NC(=O)[C@H]([C@@H](C)O)NC(=O)[C@H](CC(=O)O)NC1=O [Compound 51],ELISA Assay Ratio b1/b7,[1],3.3
same,IC50,[1],31 nM
same,IC50,[2],102 nM
CC(C)C[C@@H]1NC(=O)[C@H](Cc2ccc(O)cc2)NC(=O)[C@@H]2CCCN2[C@H](C(=O)NC(C)(C)C)[C@H](C)NC(=O)[C@H](C(C)(C)S)NC(=O)[C@H](CC(=O)O)NC1=O [Compound 55],ELISA Assay Ratio b1/b7,[1],1.1
same,IC50,[1],113 nM
same,IC50,[2],119 nM
CC(C)C[C@@H]1NC(=O)[C@@H]2C[C@@H](OCc3ccccc3)CN2C(=O)[C@@H]2CCCN2[C@H](C(=O)NC(C)(C)C)[C@H](C)NC(=O)[C@H]([C@@H](C)O)NC(=O)[C@H](CC(=O)O)NC1=O [Compound 57],ELISA Assay Ratio b1/b7,[1],2.5
same,IC50,[1],59 nM
same,IC50,[2],148 nM
CC(C)C[C@@H]1NC(=O)[C@@H](CCCN(C)C)NC(=O)[C@@H]2CCCN2[C@H](C(=O)NC(C)(C)C)[C@H](C)NC(=O)[C@H]([C@@H](C)O)NC(=O)[C@H](CC(=O)O)NC1=O [Compound 83],ELISA Assay Ratio b1/b7,[1],6.9
same,IC50,[1],179 nM
same,IC50,[2],1230 nM
CC(C)C[C@@H]1NC(=O)C2(CCCC2)NC(=O)[C@@H]2CCCN2[C@H](C(=O)NC(C)(C)C)[C@H](C)NC(=O)[C@H]([C@@H](C)O)NC(=O)[C@H](CC(=O)O)NC1=O [Compound 88],ELISA Assay Ratio b1/b7,[1],14.9
same,IC50,[1],11 nM
same,IC50,[2],166 nM
CC(C)C[C@@H]1NC(=O)C2(Cc3ccccc3C2)NC(=O)[C@@H]2CCCN2[C@H](C(=O)NC(C)(C)C)[C@H](C)NC(=O)[C@H]([C@@H](C)O)NC(=O)[C@H](CC(=O)O)NC1=O [Compound 89],ELISA Assay Ratio b1/b7,[1],14.4
same,IC50,[1],16 nM
same,IC50,[2],232 nM
CC(C)C[C@@H]1NC(=O)[C@H](C2CCCCC2)NC(=O)[C@@H]2CCCN2[C@H](C(=O)NC(C)(C)C)[C@H](C)NC(=O)[C@H]([C@@H](C)O)NC(=O)[C@H](CC(=O)O)NC1=O [Compound 91],ELISA Assay Ratio b1/b7,[1],14.5
same,IC50,[1],126 nM
same,IC50,[2],1820 nM
CC(C)C[C@@H]1NC(=O)[C@H](Cc2csc(-c3ccccn3)n2)NC(=O)[C@@H]2CCCN2[C@H](C(=O)NC(C)(C)C)[C@H](C)NC(=O)[C@H]([C@@H](C)O)NC(=O)[C@H](CC(=O)O)NC1=O [Compound 95],ELISA Assay Ratio b1/b7,[1],2.4
same,IC50,[1],125 nM
same,IC50,[2],303 nM
CC(C)C[C@@H]1NC(=O)[C@H]2c3ccccc3CCN2C(=O)[C@@H]2CCCN2[C@H](C(=O)NC(C)(C)C)[C@H](C)NC(=O)[C@H]([C@@H](C)O)NC(=O)[C@H](CC(=O)O)NC1=O [Compound 98],IC50,[2],58 nM
CC(C)C[C@@H]1NC(=O)[C@H]2CCCCN2C(=O)[C@H](Cc2ccc(O)cc2)N(C)C(=O)[C@@H]2CCCN2[C@H](C(=O)NC(C)(C)C)[C@H](C)NC(=O)[C@H]([C@@H](C)O)NC(=O)[C@H](CC(=O)O)NC1=O [Compound 148],IC50,[2],105 nM
CC(C)C[C@@H]1NC(=O)C[C@H](CCCCN)NC(=O)[C@@H](CCCNC(=N)N)NC(=O)[C@@H]2CCCN2[C@H](C(=O)NC(C)(C)C)[C@H](C)NC(=O)[C@H]([C@@H](C)O)NC(=O)[C@H](CC(=O)O)NC1=O [Compound 217],IC50,[2],1090 nM
CC(C)C[C@@H]1NC(=O)[C@@H]2CCN2C(=O)C[C@H](CCCCN)NC(=O)[C@@H]2CCCN2[C@H](C(=O)NC(C)(C)C)[C@H](C)NC(=O)[C@H]([C@@H](C)O)NC(=O)[C@H](CC(=O)O)NC1=O [Compound 319],IC50,[2],309 nM
CC(C)C[C@@H]1NC(=O)C[C@H](CCCCN)N(C)C(=O)[C@H](CCCCNC(=O)c2cc(C(=O)O)cc(C(=O)NCCCC[C@@H]3NC(=O)[C@@H]4CCCN4[C@H](C(=O)NC(C)(C)C)[C@H](C)NC(=O)[C@H]([C@@H](C)O)NC(=O)[C@H](CC(=O)O)NC(=O)[C@H](CC(C)C)NC(=O)C[C@H](CCCCN)N(C)C3=O)c2)NC(=O)[C@@H]2CCCN2[C@H](C(=O)NC(C)(C)C)[C@H](C)NC(=O)[C@H]([C@@H](C)O)NC(=O)[C@H](CC(=O)O)NC1=O [Compound 537],ELISA Assay Ratio β1/β7,"[2]; ratio of ELISA IC50s, α4β1 over α4β7",0.4
